Experimental data from PubChem BioAssay (NCI).
Values joined by “and” are separate entries in the source; they are usually repeats but may differ in a detail not shown here. Equal entries are not always repeated.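 Step 1: Grow cells in 96-well plates. Step 2: Expose to compound for 48 hours at 5 concentrations. Step 3: Interpolate endpoints linearly; if unreached, use highest concentration. Abbreviation: GI50, concentration required for 50% inhibition of growth. TGI denotes the concentration required for complete inhibition of growth.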

Columns and labels:
Test in all cases: NCI-60 cell line screen, 48 h
EKVX NSCLC = tested on: EKVX NSCLC
U251 CNS = tested on: U251 CNS
SK-MEL-28 melanoma = tested on: SK-MEL-28 melanoma
ACHN renal = tested on: ACHN renal
MOLT-4 leukemia = tested on: MOLT-4 leukemia
HCT-15 colon = tested on: HCT-15 colon
OVCAR-5 ovarian = tested on: OVCAR-5 ovarian
CCRF-CEM leukemia = tested on: CCRF-CEM leukemia
RXF 393 renal = tested on: RXF 393 renal
A498 renal = tested on: A498 renal

Compound `CC(=O)Oc1c(C)c(-c2ccccc2)c(C)c(-c2ccccc2)c1C(=S)c1ccccc1` has a TGI (EKVX NSCLC) greater than 100 µM, a TGI (U251 CNS) greater than 100 µM and a TGI (SK-MEL-28 melanoma) greater than 100 µM. For the same compound, the TGI (ACHN renal) was greater than 100 µM, the TGI (MOLT-4 leukemia) was greater than 100 µM and the TGI (HCT-15 colon) was greater than 100 µM. The TGI (OVCAR-5 ovarian) was greater than 100 µM, the TGI (CCRF-CEM leukemia) was greater than 100 µM and the TGI (RXF 393 renal) was greater than 100 µM. It also gave a TGI (A498 renal) greater than 100 µM.
`CN(C)CCC(=O)N1C/C(=C\c2ccc(Cl)c(Cl)c2)C(=O)/C(=C/c2ccc(Cl)c(Cl)c2)C1` was tested, and the TGI (EKVX NSCLC) was 1.53 µM, the TGI (U251 CNS) was 0.437 µM and the TGI (SK-MEL-28 melanoma) was 1.82 µM. The TGI (ACHN renal) was 1.05 µM, the TGI (MOLT-4 leukemia) was 1.7 µM and the TGI (HCT-15 colon) was 0.493 µM. It also gave a TGI (OVCAR-5 ovarian) of 1.69 µM, a TGI (CCRF-CEM leukemia) of 0.738 µM and a TGI (RXF 393 renal) of 0.747 µM. For the same compound, the TGI (A498 renal) was 4.6 µM.
Work on `CS(=O)(=O)CCNCc1coc(-c2ccc3ncnc(Nc4ccc(OCc5ccccc5)cc4)c3c2)c1` yielded a GI50 (EKVX NSCLC) of 1.25 µM, a TGI (EKVX NSCLC) greater than 25 µM and a GI50 (U251 CNS) of 4.72 µM. The TGI (U251 CNS) was greater than 14.2 µM, the GI50 (SK-MEL-28 melanoma) was 3.83 µM and the TGI (SK-MEL-28 melanoma) was 7.49 µM. It also gave a GI50 (ACHN renal) of 3.69 µM, a TGI (ACHN renal) of 17.1 µM and a GI50 (MOLT-4 leukemia) of 5.2 µM. It also gave a TGI (MOLT-4 leukemia) of 16.3 µM, a GI50 (HCT-15 colon) of 4.15 µM and a TGI (HCT-15 colon) of 9.53 µM. For the same compound, the GI50 (OVCAR-5 ovarian) was 4.22 µM, the TGI (OVCAR-5 ovarian) was 11.7 µM and the GI50 (CCRF-CEM leukemia) was 4.92 µM. For the same compound, the TGI (CCRF-CEM leukemia) was 14.5 µM, the GI50 (RXF 393 renal) was 2.91 µM and the TGI (RXF 393 renal) was 7.27 µM. The GI50 (A498 renal) was 1.49 µM and the TGI (A498 renal) was 6.25 µM.
In the case of `CCN(CC)CCCC(CCl)Nc1ccnc2cc(Cl)ccc12` (stereo not drawn), the GI50 (EKVX NSCLC) is reported as 30.4 µM and 29.1 µM, the TGI (EKVX NSCLC) is reported as 87.2 µM and > 100 µM and the GI50 (U251 CNS) is reported as 23.4 µM and > 50 µM. The TGI (U251 CNS) was 69.7 µM and > 100 µM, the GI50 (SK-MEL-28 melanoma) was 18.8 µM and 19 µM and the TGI (SK-MEL-28 melanoma) was 54.7 µM and > 63 µM. For the same compound, the GI50 (ACHN renal) was 36 µM and 6.74 µM, the TGI (ACHN renal) was greater than 100 µM and the TGI (MOLT-4 leukemia) was 81.1 µM and > 34.3 µM. For the same compound, the GI50 (HCT-15 colon) was 24.9 µM and 23.9 µM, the TGI (HCT-15 colon) was greater than 100 µM and the GI50 (OVCAR-5 ovarian) was 11.4 µM and 23.5 µM. For the same compound, the TGI (OVCAR-5 ovarian) was 28.6 µM and > 61.3 µM, the GI50 (CCRF-CEM leukemia) was 13.7 µM and 16.9 µM and the TGI (CCRF-CEM leukemia) was 39.7 µM and 51.5 µM. The GI50 (RXF 393 renal) was 4.95 µM and 10.6 µM, the TGI (RXF 393 renal) was 24.5 µM and > 49.1 µM and the GI50 (A498 renal) was 24.2 µM and 22 µM. The TGI (A498 renal) was 64.3 µM and 51.1 µM.
Work on `O=C(Oc1ccc[nH]c1=O)c1cc([N+](=O)[O-])cc([N+](=O)[O-])c1` yielded a GI50 (EKVX NSCLC) greater than 100 µM, a TGI (EKVX NSCLC) greater than 100 µM and a GI50 (U251 CNS) greater than 100 µM. The TGI (U251 CNS) was greater than 100 µM, the GI50 (SK-MEL-28 melanoma) was greater than 100 µM and the TGI (SK-MEL-28 melanoma) was greater than 100 µM. It also gave a GI50 (ACHN renal) of 93.3 µM, a TGI (ACHN renal) greater than 100 µM and a GI50 (MOLT-4 leukemia) greater than 100 µM. For the same compound, the TGI (MOLT-4 leukemia) was greater than 100 µM, the GI50 (HCT-15 colon) was 81 µM and the TGI (HCT-15 colon) was greater than 100 µM. It also gave a GI50 (OVCAR-5 ovarian) greater than 100 µM, a TGI (OVCAR-5 ovarian) greater than 100 µM and a GI50 (CCRF-CEM leukemia) of 79 µM. It also gave a TGI (CCRF-CEM leukemia) greater than 100 µM, a GI50 (RXF 393 renal) greater than 100 µM and a TGI (RXF 393 renal) greater than 100 µM. It also gave a GI50 (A498 renal) greater than 100 µM and a TGI (A498 renal) greater than 100 µM.
`COc1cccc2c1C(=N)c1c(O)c3c(c(O)c1C2=O)C[C@@](O)(C(C)=O)C[C@@H]3O[C@H]1C[C@H](N)[C@H](O)[C@H](C)O1` gave a GI50 (EKVX NSCLC) of 2.53 µM, a TGI (EKVX NSCLC) of 12.6 µM and a GI50 (U251 CNS) of 0.144 µM. For the same compound, the TGI (U251 CNS) was 2.14 µM, the GI50 (SK-MEL-28 melanoma) was 2.58 µM and the TGI (SK-MEL-28 melanoma) was 13.9 µM. The GI50 (ACHN renal) was 0.419 µM, the TGI (ACHN renal) was 3.1 µM and the GI50 (MOLT-4 leukemia) was 0.0428 µM. The TGI (MOLT-4 leukemia) was 2.89 µM, the GI50 (HCT-15 colon) was 2.53 µM and the TGI (HCT-15 colon) was 18.2 µM. It also gave a GI50 (OVCAR-5 ovarian) of 0.512 µM, a TGI (OVCAR-5 ovarian) of 5.68 µM and a GI50 (CCRF-CEM leukemia) of 0.0829 µM. The TGI (CCRF-CEM leukemia) was 3.76 µM, the TGI (RXF 393 renal) was 3.58 µM and the GI50 (A498 renal) was 1.5 µM. For the same compound, the TGI (A498 renal) was 5.86 µM.
For `COc1ccc2c(c1)C(=O)/C(=C/c1cccc(OCC(=O)c3ccccc3)c1)O2`, the GI50 (EKVX NSCLC) was 9.88 µM, the TGI (EKVX NSCLC) was 29.1 µM and the GI50 (U251 CNS) was 7.97 µM. The TGI (U251 CNS) was 20.8 µM, the GI50 (SK-MEL-28 melanoma) was 4.76 µM and the TGI (SK-MEL-28 melanoma) was 15.7 µM. The GI50 (ACHN renal) was 1.79 µM, the TGI (ACHN renal) was 3.38 µM and the GI50 (MOLT-4 leukemia) was 1.44 µM. The TGI (MOLT-4 leukemia) was 3.52 µM, the GI50 (HCT-15 colon) was 2.42 µM and the TGI (HCT-15 colon) was 6.83 µM. For the same compound, the GI50 (OVCAR-5 ovarian) was 4.31 µM, the TGI (OVCAR-5 ovarian) was 14.5 µM and the GI50 (CCRF-CEM leukemia) was 0.81 µM. It also gave a TGI (CCRF-CEM leukemia) of 2.42 µM, a GI50 (RXF 393 renal) of 3.26 µM and a TGI (RXF 393 renal) of 8.01 µM. For the same compound, the GI50 (A498 renal) was 17.3 µM and the TGI (A498 renal) was 31 µM.
